{"source": "patent US11179412B2", "about": "“Methods of treating conditions involving elevated inflammatory response” (University of Pittsburgh—Of the Commonwealth System of …, priority 2017, dated 2021)", "key": {"[1]": {"system": "STING activation (IFNβ release) in RAW264.7 cells", "assay": "IFNβ release ELISA, RAW264.7 cells", "format": "cell-based, mouse", "conditions": "STING ligands 10 μg/ml, inhibitor 10 μM, 16 hours", "method": "(§1) Macrophages or monocytes were treated with 3′3′-cGAMP (10 μg/ml, Invitrogen) for 16 hours in the absence or presence of one compound (10 μM) from the Target-selective Inhibitory Library (#L3500, Selleck Chemicals). Commercially available enzyme-linked immunosorbent assay (ELISA) kits were used to measure the concentrations of mouse IFNβ (Thermo Fisher Scientific) or human IFNβ (Thermo Fisher Scientific) in culture medium according to the manufacturer's instructions."}, "[2]": {"system": "STING activation (IFNβ release) in J774A.1 cells", "assay": "IFNβ release ELISA, J774A.1 cells", "format": "cell-based, mouse", "conditions": "STING ligands 10 μg/ml, inhibitor 10 μM, 16 hours", "method": "as §1"}, "IFNβ mRNA in iBMDMs": {"system": "IFNβ mRNA in iBMDMs", "assay": "IFNβ mRNA Q-PCR, iBMDMs", "format": "cell-based, mouse", "conditions": "STING ligands 10 μg/ml, inhibitor 10 μM, 16 hours", "method": "(§2) Total RNA was extracted using QIAGEN RNeasy Plus Kit according to the manufacturer's instructions. First-strand cDNA was synthesized from 1 μg of RNA using the iScript cDNA Synthesis kit (#1708890, Bio-Rad). Briefly, 20 μl reactions were prepared by combining 4 μl iScript Select reaction mix, 2 μl gene-specific enhancer solution, 1 μl reverse transcriptase, 1 μl gene-specific assay pool (20×, 2 μM), and 12 μl RNA diluted in RNase-free water. Quantitative real-time PCR was carried out using synthesized cDNA, primers, and SsoFast EvaGreen Supermix (#172-5204, Bio-Rad). The expression of target genes was calculated using the ddCt method relative to the expression of a house-keeping gene, β-actin. Data shown are the relative quantity (RQ), with RQ of the control cells set to one."}, "[3]": {"system": "IFNβ mRNA in J774A.1 cells", "assay": "IFNβ mRNA Q-PCR, J774A.1 cells", "format": "cell-based, mouse", "conditions": "STING ligands 10 μg/ml, inhibitor 10 μM, 16 hours", "method": "as §2"}, "pPMs": {"system": "pPMs", "assay": "Cell viability assay (CCK-8), pPMs", "format": "cell-based, mouse", "conditions": "3′3′-cGAMP 10 μg/ml, ALK inhibitor 10 μM, 16 hours", "method": "Cells were seeded into 96-well plates and incubated with the indicated treatments. Subsequently, 100 μl fresh medium was added to cells containing 10 μl Cell Counting Kit-8 (CCK-8) solutions (Dojindo Laboratories) and incubated for 1 h (37° C., 5% CO2). Absorbance at 450 nm was measured using a microplate reader (Tecan)."}, "[4]": {"system": "STING signaling (TBK1, IRF3, p65, ALK, EGFR, AKT phosphorylation) in iBMDMs", "assay": "Western blot of STING pathway protein phosphorylation, iBMDMs", "format": "cell-based, mouse", "method": "(§3) For immunoblotting, cells were lysed in Cell Lysis Buffer (#9803, Cell Signaling Technology) with protease inhibitor cocktail (Promega), phosphatase inhibitor cocktail (Sigma), and 1 mM Na3VO4 (70). Cleared lysates were resolved by SDS-PAGE (#3450124, Bio-Rad) and then transferred onto PVDF membranes (#1704273, Bio-Rad). The membranes were blocked with Tris-buffered saline Tween 20 (TBST) containing 5% skim milk for 1 h at room temperature and then incubated with the indicated primary antibodies (1:1000-1:5000) overnight at 4° C. After being washed with TBST, the membranes were incubated with an HRP-linked anti-mouse IgG secondary antibody (#7076, Cell Signaling Technology) or HRP-linked anti-rabbit IgG secondary antibody (#7074, Cell Signaling Technology) for 1 h at room temperature. The membranes were washed three times in TBST and then visualized and analyzed with a ChemiDoc Touch Imaging System (#1708370, Bio-Rad). The intensities of bands were analyzed with Image Lab software."}, "[5]": {"system": "STING signaling (TBK1, IRF3, p65 phosphorylation) in J774A.1 cells", "assay": "Western blot of STING pathway protein phosphorylation, J774A.1", "format": "cell-based, mouse", "conditions": "10 μM", "method": "as §3"}, "[6]": {"system": "STING signaling (TBK1, IRF3, p65, ALK, EGFR, AKT phosphorylation) in THP1 cells", "assay": "Western blot of STING pathway protein phosphorylation, THP1", "format": "cell-based, human", "conditions": "10 μM", "method": "as §3"}, "[7]": {"biological_target": "T1, interaction between ALK and EGFR (Mus musculus, UniProt P97793+Q01279)", "T1 construct": "endogenous in cells; host or cells: iBMDMs", "T1 sequence (P97793 19-1621)": "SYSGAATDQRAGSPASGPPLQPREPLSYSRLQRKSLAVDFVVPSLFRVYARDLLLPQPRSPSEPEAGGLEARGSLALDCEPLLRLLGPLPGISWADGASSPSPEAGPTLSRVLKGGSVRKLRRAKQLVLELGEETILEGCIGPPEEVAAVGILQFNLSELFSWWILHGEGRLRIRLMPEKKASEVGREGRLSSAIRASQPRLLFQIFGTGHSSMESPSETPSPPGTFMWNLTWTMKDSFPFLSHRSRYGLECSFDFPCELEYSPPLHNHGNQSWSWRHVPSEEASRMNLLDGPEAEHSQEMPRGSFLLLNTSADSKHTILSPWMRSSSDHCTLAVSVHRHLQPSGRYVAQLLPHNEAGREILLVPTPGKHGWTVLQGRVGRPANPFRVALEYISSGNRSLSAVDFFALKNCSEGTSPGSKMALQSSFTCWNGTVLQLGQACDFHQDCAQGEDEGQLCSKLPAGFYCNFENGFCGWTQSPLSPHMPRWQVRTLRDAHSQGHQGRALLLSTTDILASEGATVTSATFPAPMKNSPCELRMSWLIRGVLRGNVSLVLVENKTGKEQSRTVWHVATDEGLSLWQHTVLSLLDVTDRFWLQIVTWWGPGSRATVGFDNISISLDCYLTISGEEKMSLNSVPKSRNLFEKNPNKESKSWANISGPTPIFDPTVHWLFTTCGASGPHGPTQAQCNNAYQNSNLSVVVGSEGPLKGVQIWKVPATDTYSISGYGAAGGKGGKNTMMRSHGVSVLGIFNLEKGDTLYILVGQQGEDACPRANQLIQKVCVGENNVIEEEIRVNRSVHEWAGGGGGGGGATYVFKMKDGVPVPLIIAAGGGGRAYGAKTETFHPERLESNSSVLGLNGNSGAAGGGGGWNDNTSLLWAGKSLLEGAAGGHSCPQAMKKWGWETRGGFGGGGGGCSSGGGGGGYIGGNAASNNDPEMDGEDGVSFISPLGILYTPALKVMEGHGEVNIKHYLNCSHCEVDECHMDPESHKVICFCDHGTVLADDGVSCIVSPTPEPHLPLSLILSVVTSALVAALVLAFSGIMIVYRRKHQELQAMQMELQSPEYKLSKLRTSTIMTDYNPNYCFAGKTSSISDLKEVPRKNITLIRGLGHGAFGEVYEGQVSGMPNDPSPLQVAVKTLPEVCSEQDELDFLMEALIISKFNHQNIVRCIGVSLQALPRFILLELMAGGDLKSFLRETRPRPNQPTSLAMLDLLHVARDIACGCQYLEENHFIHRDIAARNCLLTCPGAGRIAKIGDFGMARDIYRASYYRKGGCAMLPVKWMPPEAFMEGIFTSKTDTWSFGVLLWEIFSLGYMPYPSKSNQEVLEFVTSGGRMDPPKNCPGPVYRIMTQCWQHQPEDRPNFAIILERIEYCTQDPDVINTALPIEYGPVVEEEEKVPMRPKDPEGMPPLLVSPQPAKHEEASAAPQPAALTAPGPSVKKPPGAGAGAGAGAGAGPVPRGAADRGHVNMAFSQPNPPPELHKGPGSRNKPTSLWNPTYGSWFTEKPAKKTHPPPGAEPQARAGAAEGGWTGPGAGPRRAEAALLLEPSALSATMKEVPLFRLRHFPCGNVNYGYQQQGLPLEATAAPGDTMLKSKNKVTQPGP", "T1 sequence (Q01279 25-1210)": "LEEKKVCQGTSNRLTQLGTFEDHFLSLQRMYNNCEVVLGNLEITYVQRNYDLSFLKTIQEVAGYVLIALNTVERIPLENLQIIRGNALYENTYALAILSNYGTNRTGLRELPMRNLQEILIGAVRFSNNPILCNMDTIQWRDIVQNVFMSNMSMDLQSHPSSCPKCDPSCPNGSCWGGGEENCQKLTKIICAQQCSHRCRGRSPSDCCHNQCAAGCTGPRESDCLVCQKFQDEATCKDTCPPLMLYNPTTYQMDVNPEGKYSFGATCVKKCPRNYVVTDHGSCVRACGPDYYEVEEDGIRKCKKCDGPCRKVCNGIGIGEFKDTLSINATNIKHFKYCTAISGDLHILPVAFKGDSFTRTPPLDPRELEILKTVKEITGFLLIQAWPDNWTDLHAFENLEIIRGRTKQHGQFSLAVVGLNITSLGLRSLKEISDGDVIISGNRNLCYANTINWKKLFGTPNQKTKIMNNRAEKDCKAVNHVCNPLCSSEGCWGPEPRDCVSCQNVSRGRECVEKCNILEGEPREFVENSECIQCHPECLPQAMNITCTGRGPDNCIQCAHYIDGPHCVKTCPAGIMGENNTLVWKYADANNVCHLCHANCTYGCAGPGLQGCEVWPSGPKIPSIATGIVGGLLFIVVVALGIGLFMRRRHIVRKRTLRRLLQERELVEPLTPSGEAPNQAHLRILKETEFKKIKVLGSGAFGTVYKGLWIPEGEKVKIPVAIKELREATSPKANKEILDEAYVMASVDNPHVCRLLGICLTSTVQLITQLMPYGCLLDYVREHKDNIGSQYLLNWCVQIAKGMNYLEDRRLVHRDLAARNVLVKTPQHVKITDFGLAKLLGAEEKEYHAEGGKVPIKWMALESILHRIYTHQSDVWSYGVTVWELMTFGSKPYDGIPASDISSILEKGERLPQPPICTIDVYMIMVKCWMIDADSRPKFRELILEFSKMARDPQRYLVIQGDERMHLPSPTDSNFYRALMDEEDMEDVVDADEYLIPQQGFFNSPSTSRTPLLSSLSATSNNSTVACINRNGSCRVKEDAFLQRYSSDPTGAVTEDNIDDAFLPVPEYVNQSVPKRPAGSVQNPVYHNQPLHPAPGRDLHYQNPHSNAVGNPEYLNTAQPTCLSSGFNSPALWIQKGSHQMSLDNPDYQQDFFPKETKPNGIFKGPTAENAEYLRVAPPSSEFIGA", "assay": "IP analysis of the interaction between ALK and EGFR, iBMDMs", "format": "cell-based", "conditions": "3′3′-cGAMP or c-di-AMP 10 μg/ml, 16 hours, 10 μM", "method": "Concentrations of proteins in the supernatant were determined by bicinchoninic acid assay. […] Following incubation, agarose/sepharose beads were washed extensively with PBS and proteins were eluted by boiling in 2× sodium dodecyl sulfate (SDS) sample buffer before SDS-PAGE electrophoresis."}, "[8]": {"system": "receptor tyrosine kinase phosphorylation in iBMDMs", "assay": "Proteome Profiler phospho-RTK array, iBMDMs", "format": "cell-based, mouse", "conditions": "3′3′-cGAMP or c-di-AMP 10 μg/ml, 16 hours, LDK378 10 μM", "text": "The Proteome Profiler Mouse XL Cytokine Array Kit (#ARY028) and the Proteome Profiler Mouse Phospho-RTK Array Kit (#ARY014) are membrane-based sandwich immunoassays. Captured antibodies spotted in duplicate on nitrocellulose membranes bind to specific target proteins present in the sample (Step 1). Captured proteins are detected with biotinylated detection antibodies (Step 2) and then visualized using chemiluminescent detection reagents (Step 3). The signal produced is proportional to the amount of analyte bound. The intensities of bands were analyzed with Quick Spots Image Analysis Software (Western Vision Software, http://www.wvision.com/QuickSpots.html)."}, "[9]": {"conditions": "3′3′-cGAMP 10 μg/ml, three to 16 hours"}}, "data": [{"smiles": "Cc1cc(Nc2ncc(Cl)c(Nc3ccccc3S(=O)(=O)C(C)C)n2)c(OC(C)C)cc1C1CCNCC1", "note": "[LDK378, 5-chloro-N^2-(2-isopropoxy-5-methyl-4-(piperidin-4-yl)phenyl)-N^4-[2-(propane-2-sulfonyl)-phenyl]-pyrimidine-2,4-diamine]", "values": [{"measurement": "IFNβ release induced by STING ligands", "setting": "[1]", "result": "inhibited"}, {"measurement": "IFNβ release induced by STING ligands", "setting": "[2]", "result": "inhibited"}, {"measurement": "STING ligand-induced IFNβ mRNA expression", "setting": "IFNβ mRNA in iBMDMs", "result": "attenuation"}, {"measurement": "STING ligand-induced IFNβ mRNA expression", "setting": "[3]", "result": "attenuation"}, {"measurement": "cell viability", "setting": "pPMs", "result": "did not affect cell viability"}, {"measurement": "3′3′-cGAMP-induced p-TBK1", "setting": "[4]; 3′3′-cGAMP 10 μg/ml, 10 μM, three to 16 hours", "result": "time-dependently reduced"}, {"measurement": "STING ligand-induced phosphorylation of TBK1, IRF3, and p65", "setting": "[4]; 3′3′-cGAMP or c-di-AMP 10 μg/ml, 16 hours, 10 μM", "result": "diminished"}, {"measurement": "LPS-induced phosphorylation of TBK1, IRF3, and p65", "setting": "[4]; LPS 1 μg/ml, LDK378 10 μM, three hours", "result": "inhibited"}, {"measurement": "3′3′-cGAMP-, c-di-AMP-, and DMXAA-induced p-IRF3 and p-p65", "setting": "[4]; ligand 10 μg/ml, 10 μM", "result": "inhibited"}, {"measurement": "c-di-AMP- or DMXAA-induced p-TBK1", "setting": "[4]; ligand 10 μg/ml, 10 μM, 16 hours", "result": "inhibited"}, {"measurement": "3′3′-cGAMP- or c-di-AMP-induced phosphorylation of ALK, EGFR, and AKT", "setting": "[4]; ligand 10 μg/ml, 16 hours, 10 μM", "result": "attenuated"}, {"measurement": "3′3′-cGAMP-induced p-TBK1", "setting": "[5]; [9]", "result": "time-dependently reduced"}, {"measurement": "3′3′-cGAMP-, c-di-AMP-, and DMXAA-induced p-IRF3 and p-p65", "setting": "[5]; ligand 10 μg/ml", "result": "inhibited"}, {"measurement": "c-di-AMP- or DMXAA-induced p-TBK1", "setting": "[5]; ligand 10 μg/ml, 16 hours", "result": "inhibited"}, {"measurement": "3′3′-cGAMP-induced p-TBK1", "setting": "[6]; [9]", "result": "time-dependently reduced"}, {"measurement": "STING ligand-induced phosphorylation of TBK1, IRF3, and p65", "setting": "[6]; 3′3′-cGAMP or c-di-AMP 10 μg/ml, 16 hours", "result": "diminished"}, {"measurement": "3′3′-cGAMP-, c-di-AMP-, and DMXAA-induced p-IRF3 and p-p65", "setting": "[6]; ligand 10 μg/ml", "result": "inhibited"}, {"measurement": "c-di-AMP- or DMXAA-induced p-TBK1", "setting": "[6]; ligand 10 μg/ml, 16 hours", "result": "inhibited"}, {"measurement": "3′3′-cGAMP- or c-di-AMP-induced phosphorylation of ALK, EGFR, and AKT", "setting": "[6]; ligand 10 μg/ml, 16 hours", "result": "attenuated"}, {"measurement": "interaction between ALK and EGFR", "setting": "[7]", "result": "reduced"}, {"measurement": "STING ligand-induced upregulated phosphorylation of various RTKs, including EGFR", "setting": "[8]", "result": "impaired"}]}]}
